Assay results reported in patent US5034396A, “Method of treating depression with optically active isomers of 20,21-dinoreburnamenines” (Roussel Uclaf, priority 1987, dated 1991).

What was measured:
[1] = test system: alpha2 adrenergic receptors; assay: Affinity for the alpha2 adrenergic receptors (3H rauwolscine displacement, rat cortex membranes); format: binding; conditions: 3H rauwolscine 0.15 nM, 45 minutes at 25° C., from CD (phentolamine) and CX (product) concentrations inhibiting 50% of specific fixation
Experimental: (1) Affinity for the alpha2 adrenergic receptors
10 cortices removed from the brains of male rats weighing an average of 150 g were homogenized in 90 ml of sucrose 0.32M and after centrifuging the homogenized mixture at 1,000 g for 10 minutes at 0° C., the supernatant was centrifuged at 30,000 g for 10 minutes at 0° to 4° C. The new residue obtained was suspended in 480 ml of NaKPO4 buffer, pH 7.4, 50 mM. 2 ml of the suspension were then incubated for 45 minutes at 25° C. in the presence of ^3 H rauwolscine at a concentration of 0.15 nM: (i) alone (ii) with increasing concentrations of the product under test, or (iii) to determine the non-specific fixation, with non-radioactive phentolamine at a concentration of 10^-5 M. The incubated suspensions were filtered on Whatman GF/C and the filters were washed three times with 5 ml of NaKPO4 buffer, pH 7.4 at 0° C. The radioactivity of the filters was measured by liquid scintillation.
The affinity of the product tested for the alpha2 adrenegic receptors was given relative to phentolamine as reference product.
CD=concentration of phentolamine inhibiting 50% of the specific fixation of the ^3 H rauwolscine:
CX=concentration of the product under test inhibiting 50% of the specific fixation of the ^3 H rauwolscine.

mice [2] = assay: Hypobaric anoxia test on mice; format: in vivo; conditions: depression of 600 mm Hg, max 3 minutes, intraperitoneally 60 minutes before the test, dose not given
Experimental: (2) Hypobaric anoxia test on mice
This consisted of measuring over a maximum duration of 3 minutes the survival time of mice placed in a 2 liter enclosure in which there was a depression of 600 mm Hg. The products were administered intraperitoneally at a volume of 0.2 ml/10 g 60 minutes before the test.

mice [3] = assay: Test of neuronal protection in mice (kainic acid striatal lesion, serum enolase gamma-gamma); format: in vivo; conditions: mouse, 2 μg kainic acid in right striatum; product intraperitoneally 60 minutes before; blood samples 24 hours later; dose not given
Experimental: (3) Test of neuronal protection in mice
A cerebral lesion was carried out on the mouse by injection in the right striatum of 2 μg of kainic acid in a volume of 0.5 μl. […] The products were injected intraperitonally 60 minutes before the neurotoxic and the blood samples were taken 24 hours later.

Sprague Dawley rats = assay: Test of anti-depressive activity (forced swimming immobility); format: in vivo; conditions: Rattus norvegicus, ip, immobility during 5 minutes, intraperitoneally 24 hours, 5 hours and a half-hour before the test, read-out: DA50 (the source's name)
Experimental: (4) Test of anti-depressive activity
The tests were carried out on groups of 5 Sprague Dawley rats and the non-conditioned animals were put for 15 minutes in a vertical perspex cylinder (diameter: 18 cm, height: […]) containing water at 25° C. to a height of 15 cm (initial swimming test). They were then dried for 15 minutes in an enclosure heated to 32° C. and 24 hours later, they were replaced in the cylinder filled with water, and the total duration of the periods of immobility was measured during 5 minutes. The compound was administered intraperitonally successively 24 hours, 5 hours and a half-hour before the test. The first administration was made immediately after the first swimming test and just before replacing the animals in their breeding box. The averages of the groups treated were compared with those of the control group by the Dunnett test.

Row | ARL (relative affinity for alpha2 adrenergic receptors, relative to phentolamine) [1] | Compound | Survival time (mice [2]) | enolase gamma-gamma (mice [3]) [%] | ED50 (Sprague Dawley rats) [mg/kg]
1 | 57 | O[C@@H]1C[C@H]2CCCN3CCc4c(n1c1ccccc41)[C@H]23 [Example 4, (3α, 14β) 14,15-dihydro-20,21-dinoreburnamenin-14-ol] | – | – | ~5
2 | 8 | C1=Cn2c3c(c4ccccc42)CCN2CCC[C@H]1[C@@H]32 [Example 5, (3α) 20,21-dinoreburnamenine] | – | – | –
3 | 633 | C1=Cn2c3c(c4ccccc42)CCN2CCC[C@@H]1[C@H]32 [Example 6, (16α) 20,21-dinoreburnamenine] | – | – | –

Row | Compound | ARL (relative affinity for alpha2 adrenergic receptors, relative to phentolamine) [1] | Survival time (mice [2]) | enolase gamma-gamma (mice [3]) [%] | ED50 (Sprague Dawley rats) [mg/kg]
4 | O[C@H]1C[C@@H]2CCCN3CCc4c(n1c1ccccc41)[C@@H]23 [Example 3, (14α, 16α) 14,15-dihydro-20,21-dinoreburnamenin-14-ol] | 0.3 | +37% | -24 | ~10
